Measurements as given in ChEMBL document CHEMBL1134526, “Enantioselective syntheses of potent retinoid X receptor ligands: differential biological activities of individual antipodes” (J Med Chem, 2001).

Assays:
Format in all cases: functional
Mus musculus [1] = test: Hypoglycemic activity in mice at 2 mg/kg dose at day=0
Mus musculus [2] = test: Hypoglycemic activity in mice at 8 mg/kg dose at day=0
Mus musculus [3] = test: Hypoglycemic activity in mice at 2 mg/kg dose at day=7
Mus musculus [4] = test: Hypoglycemic activity in mice at 8 mg/kg dose at day=7
Mus musculus [5] = test: Hypoglycemic activity in mice at 0.4 mg/kg dose at day=0
Mus musculus [6] = test: Hypoglycemic activity in mice at 0.4 mg/kg dose at day=7

Compound | Glucose level (Mus musculus [1]) | Glucose level (Mus musculus [2]) | Glucose level (Mus musculus [3]) | Glucose level (Mus musculus [4]) | Glucose level (Mus musculus [5]) | Glucose level (Mus musculus [6])
CC(/C=C/[C@H]1C[C@@]1(C)c1ccc2c(c1)C(C)(C)CCC2(C)C)=C\C(=O)O | 400 mg/dL | 404 mg/dL | 391 mg/dL | 441 mg/dL | – | –
CC(/C=C/[C@@H]1C[C@]1(C)c1ccc2c(c1)C(C)(C)CCC2(C)C)=C\C(=O)O [IRX-4204] | 404 mg/dL | – | 221 mg/dL | – | 406 mg/dL | 291 mg/dL
